These are literature values, as cited in patent publication US20220364053A1, “HUMAN CELLULAR MODEL FOR INVESTIGATING CORTICO-STRIATAL-MIDBRAIN NEURAL PATHWAYS” (The Board of Trustees of the Leland Stanford Junior …, priority 2019, published 2022).

The structures appear in SMILES notation.

The term IC50 denotes the concentration that gives 50% inhibition. For orientation: EC50 means the concentration needed to bring the measured effect to its halfway point. For orientation: Kd means the constant that tells how readily two partners part at equilibrium.

In data set [1] the target is element-binding protein (CBP) (Homo sapiens, UniProt Q92793). The note with it: read-out: IC50, binds to element-binding protein (CBP).
For data set [2], the system named is Wnt-stimulated cellular responses.
Data set [3] relates to Wnt processing and secretion. The note with it: cell-free assay; read-out: IC50, inhibitor of Wnt processing and secretion.
Data set [4] concerns the target T1, Porcn (Homo sapiens, UniProt Q9H237).
T1 sequence (Q9H237 1-461): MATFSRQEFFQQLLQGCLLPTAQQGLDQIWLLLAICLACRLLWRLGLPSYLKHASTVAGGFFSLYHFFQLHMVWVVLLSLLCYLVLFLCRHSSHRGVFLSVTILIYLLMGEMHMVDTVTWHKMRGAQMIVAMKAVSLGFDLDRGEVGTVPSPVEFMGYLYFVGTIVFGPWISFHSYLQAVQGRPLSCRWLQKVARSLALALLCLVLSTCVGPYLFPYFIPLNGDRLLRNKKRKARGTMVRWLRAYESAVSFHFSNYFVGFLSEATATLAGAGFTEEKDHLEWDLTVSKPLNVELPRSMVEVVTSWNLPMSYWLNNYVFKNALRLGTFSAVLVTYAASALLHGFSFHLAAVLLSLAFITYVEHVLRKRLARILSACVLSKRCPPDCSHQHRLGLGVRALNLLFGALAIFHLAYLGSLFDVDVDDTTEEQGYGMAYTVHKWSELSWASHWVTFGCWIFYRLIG
The settings on record: read-out: EC50, Porcn inhibitor.

In data set [5] the test system is Wnt signaling. The note with it: TM3 cells; read-out: IC50, inhibits Wnt signaling.
Data set [6] addresses Smo heptahelical domain (Homo sapiens, UniProt Q99835).
Data set [7] has as its target T2, TNKS2 (Homo sapiens, UniProt Q9H2K2).
T2 sequence (Q9H2K2 1-1166): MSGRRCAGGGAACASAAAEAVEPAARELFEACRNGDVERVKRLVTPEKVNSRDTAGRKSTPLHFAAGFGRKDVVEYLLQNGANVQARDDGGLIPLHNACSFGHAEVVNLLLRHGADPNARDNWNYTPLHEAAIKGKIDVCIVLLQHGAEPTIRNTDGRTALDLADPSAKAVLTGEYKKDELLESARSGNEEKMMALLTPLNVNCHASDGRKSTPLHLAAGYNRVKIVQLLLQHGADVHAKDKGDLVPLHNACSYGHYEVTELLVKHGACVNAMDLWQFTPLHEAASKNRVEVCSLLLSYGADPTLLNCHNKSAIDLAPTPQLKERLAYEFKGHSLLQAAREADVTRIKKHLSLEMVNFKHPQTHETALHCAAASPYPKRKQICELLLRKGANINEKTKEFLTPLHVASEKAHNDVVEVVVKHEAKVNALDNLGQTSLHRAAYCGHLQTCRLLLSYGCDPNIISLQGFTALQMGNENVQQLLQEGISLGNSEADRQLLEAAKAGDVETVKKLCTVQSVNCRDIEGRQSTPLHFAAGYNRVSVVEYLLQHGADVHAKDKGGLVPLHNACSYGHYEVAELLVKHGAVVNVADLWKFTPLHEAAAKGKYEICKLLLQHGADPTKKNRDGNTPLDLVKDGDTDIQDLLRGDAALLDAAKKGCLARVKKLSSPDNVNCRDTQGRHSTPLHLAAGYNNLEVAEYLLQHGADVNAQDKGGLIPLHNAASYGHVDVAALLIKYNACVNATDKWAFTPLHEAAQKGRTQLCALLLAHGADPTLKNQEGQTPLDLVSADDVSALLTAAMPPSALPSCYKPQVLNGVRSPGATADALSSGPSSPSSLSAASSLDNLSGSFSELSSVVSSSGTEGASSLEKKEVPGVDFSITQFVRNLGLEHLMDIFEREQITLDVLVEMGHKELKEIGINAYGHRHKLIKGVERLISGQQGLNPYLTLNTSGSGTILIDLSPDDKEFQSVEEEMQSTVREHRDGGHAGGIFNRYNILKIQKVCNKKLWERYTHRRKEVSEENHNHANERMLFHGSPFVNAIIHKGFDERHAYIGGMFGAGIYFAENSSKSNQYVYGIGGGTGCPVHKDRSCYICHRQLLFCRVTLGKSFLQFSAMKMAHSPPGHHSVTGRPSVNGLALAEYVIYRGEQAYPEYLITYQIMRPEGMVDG

Data set [8] has as its target Wnt3A-mediated activation of a multimerized TCF-binding site driving luciferase. The settings on record: HEK293 cells.

element-binding protein (CBP), sequence (Q92793 whole entry): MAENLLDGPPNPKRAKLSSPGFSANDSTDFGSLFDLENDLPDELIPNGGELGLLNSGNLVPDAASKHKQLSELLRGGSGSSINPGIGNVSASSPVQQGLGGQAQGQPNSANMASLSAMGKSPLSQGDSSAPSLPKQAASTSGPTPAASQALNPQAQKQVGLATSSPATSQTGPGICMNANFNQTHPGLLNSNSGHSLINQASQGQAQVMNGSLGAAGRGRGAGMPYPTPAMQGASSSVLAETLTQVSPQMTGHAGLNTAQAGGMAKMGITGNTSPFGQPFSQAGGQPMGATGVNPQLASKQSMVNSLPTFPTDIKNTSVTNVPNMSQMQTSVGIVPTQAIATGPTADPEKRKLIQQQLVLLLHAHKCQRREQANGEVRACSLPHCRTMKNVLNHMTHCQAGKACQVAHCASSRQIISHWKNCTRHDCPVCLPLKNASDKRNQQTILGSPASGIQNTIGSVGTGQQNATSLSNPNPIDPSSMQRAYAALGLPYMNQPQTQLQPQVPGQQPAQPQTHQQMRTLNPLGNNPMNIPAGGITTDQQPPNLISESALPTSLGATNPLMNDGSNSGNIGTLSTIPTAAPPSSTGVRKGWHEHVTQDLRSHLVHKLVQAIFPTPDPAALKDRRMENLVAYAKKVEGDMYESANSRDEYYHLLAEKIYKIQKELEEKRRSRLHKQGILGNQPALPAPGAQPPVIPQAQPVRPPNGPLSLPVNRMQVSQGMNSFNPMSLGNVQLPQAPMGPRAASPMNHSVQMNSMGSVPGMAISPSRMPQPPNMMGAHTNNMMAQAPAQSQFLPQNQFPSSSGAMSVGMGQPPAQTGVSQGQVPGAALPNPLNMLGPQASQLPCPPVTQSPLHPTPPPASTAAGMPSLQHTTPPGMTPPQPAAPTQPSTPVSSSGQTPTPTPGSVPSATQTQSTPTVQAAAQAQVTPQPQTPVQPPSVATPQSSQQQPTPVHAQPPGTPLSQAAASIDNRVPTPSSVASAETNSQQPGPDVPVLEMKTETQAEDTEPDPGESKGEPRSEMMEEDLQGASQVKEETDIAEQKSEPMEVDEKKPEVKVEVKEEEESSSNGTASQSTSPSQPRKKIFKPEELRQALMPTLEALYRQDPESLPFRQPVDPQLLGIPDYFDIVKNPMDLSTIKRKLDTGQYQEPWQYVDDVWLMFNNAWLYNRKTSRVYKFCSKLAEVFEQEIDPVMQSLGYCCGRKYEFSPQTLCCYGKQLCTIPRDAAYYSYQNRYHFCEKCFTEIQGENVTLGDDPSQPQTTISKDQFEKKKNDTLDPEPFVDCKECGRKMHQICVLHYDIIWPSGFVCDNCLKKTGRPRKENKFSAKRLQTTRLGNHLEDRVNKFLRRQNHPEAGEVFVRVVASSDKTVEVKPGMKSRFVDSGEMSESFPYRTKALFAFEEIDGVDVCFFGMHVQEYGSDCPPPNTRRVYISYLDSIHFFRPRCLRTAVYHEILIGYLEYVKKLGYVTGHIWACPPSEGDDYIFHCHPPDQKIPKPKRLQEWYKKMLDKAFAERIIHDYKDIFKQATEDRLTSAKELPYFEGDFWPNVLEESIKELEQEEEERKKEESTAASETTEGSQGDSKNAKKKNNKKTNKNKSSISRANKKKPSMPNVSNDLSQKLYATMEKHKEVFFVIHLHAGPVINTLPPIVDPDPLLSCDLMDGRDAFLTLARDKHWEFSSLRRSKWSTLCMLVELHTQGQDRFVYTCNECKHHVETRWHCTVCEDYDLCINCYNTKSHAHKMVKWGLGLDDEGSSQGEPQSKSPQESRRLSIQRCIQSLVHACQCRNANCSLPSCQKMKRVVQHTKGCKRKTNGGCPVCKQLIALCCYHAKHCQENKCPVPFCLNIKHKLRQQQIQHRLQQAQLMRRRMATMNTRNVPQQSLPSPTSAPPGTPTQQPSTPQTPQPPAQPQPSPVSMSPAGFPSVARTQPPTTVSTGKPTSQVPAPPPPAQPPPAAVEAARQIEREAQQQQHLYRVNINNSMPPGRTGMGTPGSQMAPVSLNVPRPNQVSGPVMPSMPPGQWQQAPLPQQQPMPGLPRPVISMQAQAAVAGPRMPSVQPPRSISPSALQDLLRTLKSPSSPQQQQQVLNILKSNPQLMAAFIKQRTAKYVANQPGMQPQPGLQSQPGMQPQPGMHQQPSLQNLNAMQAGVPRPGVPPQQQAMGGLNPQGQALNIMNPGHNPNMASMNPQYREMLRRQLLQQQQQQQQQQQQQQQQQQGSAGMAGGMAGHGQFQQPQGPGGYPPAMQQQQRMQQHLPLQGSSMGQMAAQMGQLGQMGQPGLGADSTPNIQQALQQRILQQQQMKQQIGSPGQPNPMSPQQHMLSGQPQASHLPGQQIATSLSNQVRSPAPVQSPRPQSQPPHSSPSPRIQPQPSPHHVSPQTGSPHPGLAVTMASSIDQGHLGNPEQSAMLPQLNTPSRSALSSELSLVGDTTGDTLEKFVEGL
Smo heptahelical domain, sequence (Q99835 28-787): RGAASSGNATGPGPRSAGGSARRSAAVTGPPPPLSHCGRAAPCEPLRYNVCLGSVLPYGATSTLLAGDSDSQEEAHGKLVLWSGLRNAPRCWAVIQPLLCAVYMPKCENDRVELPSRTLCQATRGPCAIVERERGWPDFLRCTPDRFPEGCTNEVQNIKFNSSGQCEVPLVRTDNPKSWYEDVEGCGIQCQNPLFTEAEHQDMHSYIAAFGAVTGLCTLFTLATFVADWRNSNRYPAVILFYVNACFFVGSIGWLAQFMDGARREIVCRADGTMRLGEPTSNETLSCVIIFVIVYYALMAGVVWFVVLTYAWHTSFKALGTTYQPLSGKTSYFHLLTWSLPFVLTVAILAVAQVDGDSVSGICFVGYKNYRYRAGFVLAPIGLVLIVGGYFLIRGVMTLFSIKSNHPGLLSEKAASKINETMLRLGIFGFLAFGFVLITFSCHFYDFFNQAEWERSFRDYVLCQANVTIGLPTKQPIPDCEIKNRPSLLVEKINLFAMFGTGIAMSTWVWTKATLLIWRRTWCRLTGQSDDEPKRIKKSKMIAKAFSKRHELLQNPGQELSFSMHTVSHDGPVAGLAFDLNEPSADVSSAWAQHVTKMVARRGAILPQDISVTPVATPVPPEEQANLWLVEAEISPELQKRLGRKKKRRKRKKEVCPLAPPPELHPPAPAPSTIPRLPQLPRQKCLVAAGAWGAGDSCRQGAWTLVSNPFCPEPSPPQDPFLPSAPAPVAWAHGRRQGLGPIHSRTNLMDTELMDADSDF

As to `O=C1[C@H](Cc2ccc(O)cc2)N2C(=O)CCN(C(=O)NCc3ccccc3)[C@H]2CN1Cc1cccc2ccccc12` [ICG-001], the IC50 in data set [1] is 3000 nM. In the case of `Cc1ccc2nc(NC(=O)CSc3nc4c(c(=O)n3-c3ccccc3)SCC4)sc2c1` [IWP-2], the “effect against Wnt-stimulated cellular responses” value in data set [2] is given as “no effect”. In addition, the IC50 in data set [3] is 27 nM. On to `O=C(CSc1nc2c(c(=O)n1-c1ccccc1)SCC2)Nc1ccc(-c2ccccc2)cn1` [IWP-L6], for which, in data set [4], the EC50 is 0.5 nM. Regarding `Cc1cc(-c2ncc(CC(=O)Nc3ccc(-c4cnccn4)cn3)cc2C)ccn1` [LGK-974], in data set [5], the IC50 was 0.4 nM. `CNC1CCC(N(Cc2cccc(-c3ccncc3)c2)C(=O)c2sc3ccccc3c2Cl)CC1` (centres unmarked) [SAG]: in data set [6], the Kd is 59 nM. Consider `COc1ccc(-n2c(SCCCN3C(=O)c4cccc5cccc(c45)C3=O)nnc2-c2ccncc2)cc1` [WIKI4], for which the IC50 in data set [7] was 15 nM. `Cc1cc(-c2ccc(CC(=O)Nc3ccc(-c4cccnc4)cc3)cc2)ccn1` [Wnt-C59]: the IC50 in data set [8] is 74000 nM.
